pIC50: −log10 of the molar value.
What follows are compounds tested on MOLM-13 cells (assay: MOLM-13 Cell Proliferation Assay (indicator of DHODH inhibition)). Settings: Homo sapiens, 72 Hours of culture, CellTiter-Glo, no uridine.
Type: cell-based
How it was run: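 Low-passage MOLM-13 cells (10^4/well) in RPMI 1640 + 10% FBS exposed to compound (0.5% DMSO final) for 72 h at 37 °C, 5% CO2. Viability read by CellTiter-Glo luminescence; growth reflects de novo pyrimidine synthesis dependent on DHODH.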

SMILES | pIC50
N#Cc1ccnc(N2CCc3c([nH]c4cc(F)c(Cl)cc34)C2c2ccc(/C=C/CCO)cc2)n1 (centres unmarked) [Compound 224, 2-(6-chloro-7-fluoro-1-{4-[(1E)-4-hydroxybut-1-en-1-yl]phenyl}-1,3,4,9-tetrahydro-2H-pyrido[3,4-b]indol-2-yl)pyrimidine-4-carbonitrile] | 8.41
Cc1ccc(C2c3[nH]c4ccc(Cl)c(F)c4c3CCN2c2ncc(F)c(C#N)n2)c(F)c1F (centres unmarked) [Compound 214, 2-[6-chloro-1-(2,3-difluoro-4-methylphenyl)-5-fluoro-1,3,4,9-tetrahydro-2H-pyrido[3,4-b]indol-2-yl]-5-fluoropyrimidine-4-carbonitrile] | 9.30
Cc1nc(N2CCc3c([nH]c4ccc(Cl)cc34)[C@@H]2c2cnc(N3CCOCC3)nc2)nc(C(F)(F)F)n1 [Compound 466, (1S)-6-chloro-2-[4-methyl-6-(trifluoromethyl)-1,3,5-triazin-2-yl]-1-[2-(morpholin-4-yl)pyrimidin-5-yl]-2,3,4,9-tetrahydro-1H-pyrido[3,4-b]indole] | 9.05
Cc1ccc(C2c3[nH]c4cc(F)c(Cl)cc4c3CCN2c2nccc(C)n2)cc1 (centres unmarked) [Compound 42, 6-chloro-7-fluoro-1-(4-methylphenyl)-2-(4-methylpyrimidin-2-yl)-2,3,4,9-tetrahydro-1H-pyrido[3,4-b]indole] | 7.69
COC(=O)c1nc(N2CCc3c([nH]c4ccc(Cl)cc34)[C@@H]2c2ccc(C)c(F)c2F)nc(C(F)(F)F)n1 [Compound 504, methyl 4-[(1S)-6-chloro-1-(2,3-difluoro-4-methylphenyl)-1,3,4,9-tetrahydro-2H-pyrido[3,4-b]indol-2-yl]-6-(trifluoromethyl)-1,3,5-triazine-2-carboxylate] | 7.51
COc1ccc2[nH]c3c(c2c1)CCN(c1nc(C(F)(F)F)cc(C(F)(F)F)n1)[C@H]3c1ccc(C)c(F)c1F [Compound 528, (1S)-2-[4,6-bis(trifluoromethyl)pyrimidin-2-yl]-1-(2,3-difluoro-4-methylphenyl)-6-methoxy-2,3,4,9-tetrahydro-1H-pyrido[3,4-b]indole] | 8.92
CN(C)c1ccc(C2c3[nH]c4cc(F)c(Cl)cc4c3CCN2c2nccc(C(F)(F)F)n2)cc1 (centres unmarked) [Compound 170, 4-{6-chloro-7-fluoro-2-[4-(trifluoromethyl)pyrimidin-2-yl]-2,3,4,9-tetrahydro-1H-pyrido[3,4-b]indol-1-yl}-N,N-dimethylaniline] | 7.97
Cc1ccc(C2c3[nH]c4ccc(Cl)cc4c3CCN2c2nc(C(F)(F)F)cc(C(F)(F)F)n2)cc1 (centres unmarked) [Compound 360, 2-[4,6-bis(trifluoromethyl)pyrimidin-2-yl]-6-chloro-1-(4-methylphenyl)-2,3,4,9-tetrahydro-1H-pyrido[3,4-b]indole] | 9.05
Cc1nc(C)nc(N2CCc3c([nH]c4c(O)cc(Cl)cc34)C2c2cnc(N3CCOCC3)nc2)n1 (centres unmarked) [Compound 370, 6-chloro-2-(4,6-dimethyl-1,3,5-triazin-2-yl)-1-[2-(morpholin-4-yl)pyrimidin-5-yl]-2,3,4,9-tetrahydro-1H-pyrido[3,4-b]indol-8-ol] | 8.09
FC(F)c1nc(N2CCc3c([nH]c4ccc(Cl)cc34)[C@@H]2c2cnc(N3CCOCC3)nc2)nc(C(F)(F)F)n1 [Compound 507, (1S)-6-chloro-2-[4-(difluoromethyl)-6-(trifluoromethyl)-1,3,5-triazin-2-yl]-1-[2-(morpholin-4-yl)pyrimidin-5-yl]-2,3,4,9-tetrahydro-1H-pyrido[3,4-b]indole] | 9.22
Cc1cnc(N2CCc3c([nH]c4ccc(Cl)cc34)C2c2ccc(F)cc2)nc1 (centres unmarked) [Compound 2, 6-chloro-1-(4-fluorophenyl)-2-(5-methylpyrimidin-2-yl)-2,3,4,9-tetrahydro-1H-pyrido[3,4-b]indole] | 7.22
Cc1ccc(C2c3[nH]c4cc(F)c(Cl)cc4c3CCN2c2nc(C)c(C)c(C)n2)c(F)c1F (centres unmarked) [Compound 169, 6-chloro-1-(2,3-difluoro-4-methylphenyl)-7-fluoro-2-(4,5,6-trimethylpyrimidin-2-yl)-2,3,4,9-tetrahydro-1H-pyrido[3,4-b]indole] | 8.66
Cc1ccc(C2c3[nH]c4ccc(Cl)cc4c3CCN2c2nccc(C)n2)cc1 (centres unmarked) [Compound 332, 6-chloro-1-(4-methylphenyl)-2-(4-methylpyrimidin-2-yl)-2,3,4,9-tetrahydro-1H-pyrido[3,4-b]indole] | 7.93
FC1(F)CN(c2ccnc(N3CCc4c([nH]c5ccc(Cl)cc45)[C@@H]3c3cnc(N4CCOCC4)nc3)n2)C1 [Compound 456, (1S)-6-chloro-2-[4-(3,3-difluoroazetidin-1-yl)pyrimidin-2-yl]-1-[2-(morpholin-4-yl)pyrimidin-5-yl]-2,3,4,9-tetrahydro-1H-pyrido[3,4-b]indole] | 7.77
Cc1nc(N2CCc3c([nH]c4ccc(Cl)cc34)[C@@H]2c2cnc(N3CCOCC3)nc2)nc(C#N)c1F [Compound 421, 2-{(1S)-6-chloro-1-[2-(morpholin-4-yl)pyrimidin-5-yl]-1,3,4,9-tetrahydro-2H-pyrido[3,4-b]indol-2-yl}-5-fluoro-6-methylpyrimidine-4-carbonitrile] | 8.77
FC(F)(F)c1ncnc(N2CCc3c([nH]c4ccc(-n5nccn5)cc34)[C@@H]2c2ccc(N3CCOCC3)nc2)n1 [Compound 498, (1S)-1-[6-(morpholin-4-yl)pyridin-3-yl]-6-(2H-1,2,3-triazol-2-yl)-2-[4-(trifluoromethyl)-1,3,5-triazin-2-yl]-2,3,4,9-tetrahydro-1H-pyrido[3,4-b]indole] | 9.15
CN1CCN(c2nc(N3CCc4c([nH]c5ccc(Cl)cc45)[C@@H]3c3cnc(N4CCOCC4)nc3)nc(C(F)(F)F)n2)CC1 [Compound 478, (1S)-6-chloro-2-[4-(4-methylpiperazin-1-yl)-6-(trifluoromethyl)-1,3,5-triazin-2-yl]-1-[2-(morpholin-4-yl)pyrimidin-5-yl]-2,3,4,9-tetrahydro-1H-pyrido[3,4-b]indole] | 8.02
Cc1nc(N2CCc3c([nH]c4cc(F)c(Cl)cc34)C2c2ccc(CCCCO)cc2)ncc1F (centres unmarked) [Compound 240, 4-{4-[6-chloro-7-fluoro-2-(5-fluoro-4-methylpyrimidin-2-yl)-2,3,4,9-tetrahydro-1H-pyrido[3,4-b]indol-1-yl]phenyl}butan-1-ol] | 8.39
Cc1ncc(C2c3[nH]c4cc(F)c(Cl)cc4c3CCN2c2nccc(C(F)(F)F)n2)cn1 (centres unmarked) [Compound 92, 6-chloro-7-fluoro-1-(2-methylpyrimidin-5-yl)-2-[4-(trifluoromethyl)pyrimidin-2-yl]-2,3,4,9-tetrahydro-1H-pyrido[3,4-b]indole] | 7.46
Cc1ccc(C2c3[nH]c4ccc(Cl)cc4c3CCN2c2nc(C(F)(F)F)nc(C(F)(F)F)n2)c(F)c1F (centres unmarked) [Compound 497, 2-[4,6-bis(trifluoromethyl)-1,3,5-triazin-2-yl]-6-chloro-1-(2,3-difluoro-4-methylphenyl)-2,3,4,9-tetrahydro-1H-pyrido[3,4-b]indole] | 9.70
Cc1ccnc(N2CCc3c([nH]c4cc(F)c(Cl)cc34)C2c2ccc(Cl)cc2)n1 (centres unmarked) [Compound 38, 6-chloro-1-(4-chlorophenyl)-7-fluoro-2-(4-methylpyrimidin-2-yl)-2,3,4,9-tetrahydro-1H-pyrido[3,4-b]indole] | 7.61
Cc1ncc(C2c3[nH]c4cc(F)c(Cl)cc4c3CCN2c2ncc(Cl)cn2)cn1 (centres unmarked) [Compound 101, 6-chloro-2-(5-chloropyrimidin-2-yl)-7-fluoro-1-(2-methylpyrimidin-5-yl)-2,3,4,9-tetrahydro-1H-pyrido[3,4-b]indole] | 6.96
Cc1ncc(C2c3[nH]c4cc(F)c(Cl)cc4c3CCN2c2ncc(F)cn2)cn1 (centres unmarked) [Compound 91, 6-chloro-7-fluoro-2-(5-fluoropyrimidin-2-yl)-1-(2-methylpyrimidin-5-yl)-2,3,4,9-tetrahydro-1H-pyrido[3,4-b]indole] | 7.05
Cc1ccc(C2c3[nH]c4ccc(Cl)c(F)c4c3CCN2c2nc(C#N)cc(C#N)n2)cc1 (centres unmarked) [Compound 228, 2-[6-chloro-5-fluoro-1-(4-methylphenyl)-1,3,4,9-tetrahydro-2H-pyrido[3,4-b]indol-2-yl]pyrimidine-4,6-dicarbonitrile] | 8.36
Cc1nc(N(C)C)nc(N2CCc3c([nH]c4ccc(Cl)cc34)C2c2cnc(N3CCOCC3)nc2)n1 (centres unmarked) [Compound 290, 4-{6-chloro-1-[2-(morpholin-4-yl)pyrimidin-5-yl]-1,3,4,9-tetrahydro-2H-pyrido[3,4-b]indol-2-yl}-N,N,6-trimethyl-1,3,5-triazin-2-amine] | 7.71
Cc1cc(C(F)(F)F)nc(N2CCc3c([nH]c4cc(F)c(Cl)cc34)C2c2cccc(F)c2F)n1 (centres unmarked) [Compound 147, 6-chloro-1-(2,3-difluorophenyl)-7-fluoro-2-[4-methyl-6-(trifluoromethyl)pyrimidin-2-yl]-2,3,4,9-tetrahydro-1H-pyrido[3,4-b]indole] | 8.89
CCCCOC(=O)c1ccnc(N2CCc3c([nH]c4ccc(Cl)cc34)C2c2ccc(C)c(F)c2F)n1 (centres unmarked) [Compound 281, butyl 2-[6-chloro-1-(2,3-difluoro-4-methylphenyl)-1,3,4,9-tetrahydro-2H-pyrido[3,4-b]indol-2-yl]pyrimidine-4-carboxylate] | 8.85
FC(F)(F)c1cc(C(F)(F)F)nc(N2CCc3c([nH]c4ccc(Br)cc34)[C@@H]2c2ccc(N3CCOCC3)nc2)n1 [Compound 487, (1S)-2-[4,6-bis(trifluoromethyl)pyrimidin-2-yl]-6-bromo-1-[6-(morpholin-4-yl)pyridin-3-yl]-2,3,4,9-tetrahydro-1H-pyrido[3,4-b]indole] | 9.70
Fc1ccc(C2c3[nH]c4ccc(Cl)cc4c3CCN2c2nccc(C(F)(F)F)n2)c(F)c1F (centres unmarked) [Compound 263, 6-chloro-2-[4-(trifluoromethyl)pyrimidin-2-yl]-1-(2,3,4-trifluorophenyl)-2,3,4,9-tetrahydro-1H-pyrido[3,4-b]indole] | 8.60

Source: patent US20250186437A1, “CARBOLINE COMPOUNDS AND USE THEREOF” (PTC Therapeutics, Inc., priority 2021, published 2025)
